Activity calls are given as the source filed them. No cut-off for these calls is given here. Where a SMILES comes first, the peptide text is derived from it.
Tests used:
[1] = Antioxidant activity assessed as ABTS radical scavenging activity at 80 ug/mL incubated for 10 mins by absorbance based assay; type: functional; settings: dose 80.0 µg/ml
[2] = Antioxidant activity assessed as DPPH radical scavenging activity by measuring eradication rate at 80 ug/mL incubated for 30 mins by absorbance based assay relative to control; type: functional; settings: dose 80.0 µg/ml
[3] = Antioxidant activity assessed as ROS scavenging activity; type: functional
HEK293 = assay: Activation of COL1a2 transcriptional activity in HEK293 cells by dual-luciferase reporter assay; type: functional, cell-based; settings: Homo sapiens
Mus musculus [4] = assay: Protection against UV radiation-stress induced skin damage in Kunming mouse model assessed as repair of broken skin at 20 ug/ml administered topically and measured every 2 days for 10 days; type: functional, organism-based; settings: dose 20.0 µg/ml, route top, time 10.0 day
HFF-1 [5] = assay: Inhibition of H2O2-stimulated IL-6 production in SIPS HFF-1 cell model pre-incubated with compound for 12 hrs followed by H2O2 stimulation for 60 mins by ELISA method; type: functional, cell-based; settings: Homo sapiens, dose 5-25 µg/ml, time 13.0 hrs
HFF-1 [6] = assay: Inhibition of H2O2-stimulated TNF-alpha production in SIPS HFF-1 cell model pre-incubated with compound for 12 hrs followed by H2O2 stimulation for 60 mins by ELISA method; type: functional, cell-based; settings: Homo sapiens, dose 5-25 µg/ml, time 13.0 hrs
HFF-1 [7] = assay: Inhibition of H2O2-stimulated IL-1beta production in SIPS HFF-1 cell model pre-incubated with compound for 12 hrs followed by H2O2 stimulation for 60 mins by ELISA method; type: functional, cell-based; settings: Homo sapiens, dose 5-25 µg/ml, time 13.0 hrs
HFF-1 [8] = assay: Cytotoxicity against HFF-1 cells upto 160 ug/mL incubated for 24 hrs by MTT assay; type: toxicity, cell-based; settings: human, hff-1, 24 h, up to 160 µg/mL
[9] = Toxicity in Wistar rat mast cell assessed as cell degranulation by measuring beta-hexosaminidase release at 10 ug/mL incubated for 15 mins by fluorescence based analysis (reference value: 20.13 +/- 1.40 %); settings: 0.25 h, at 10 µg/mL
[10] = Toxicity in Wistar rat mast cell assessed as cell degranulation by measuring beta-hexosaminidase release at 40 ug/mL incubated for 15 mins by fluorescence based analysis (reference value: 20.13 +/- 1.40 %); settings: 0.25 h, at 40 µg/mL
[11] = Toxicity in Wistar rat mast cell assessed as cell degranulation by measuring beta-hexosaminidase release at 160 ug/mL incubated for 15 mins by fluorescence based analysis (reference value: 20.13 +/- 1.40 %); settings: 0.25 h, at 160 µg/mL
[12] = Toxicity in Wistar rat mast cell assessed as cell degranulation by measuring increase in beta-hexosaminidase release at 10 ug/mL incubated for 15 mins by fluorescence based analysis (reference value: 0 +/- 1.40 %); settings: 0.25 h, at 10 µg/mL
[13] = Toxicity in Wistar rat mast cell assessed as cell degranulation by measuring increase in beta-hexosaminidase release at 40 ug/mL incubated for 15 mins by fluorescence based analysis (reference value: 0 +/- 1.40 %); settings: 0.25 h, at 40 µg/mL
[14] = Toxicity in Wistar rat mast cell assessed as cell degranulation by measuring increase in beta-hexosaminidase release at 160 ug/mL incubated for 15 mins by fluorescence based analysis (reference value: 0 +/- 1.40 %); settings: 0.25 h, at 160 µg/mL
[15] = Antioxidant activity assessed as ABTS radical scavenging activity in presence of 50 mM NaCl; type: functional
[16] = Antioxidant activity assessed as ABTS radical scavenging activity in presence of 400 mM NaCl; type: functional
[17] = Thermal stability of compound by measuring retention of ABTS radical scavenging activity at 2 mg/mL at 37 degC for 96 hrs; type: physicochemical
[18] = Stability of compound in human serum assessed as protease mediated degradation at 2 mg/mL incubated for 24 hrs by RP-HPLC analysis; type: ADME, cell-free
HFF-1 [19] = assay: Protection against UV-A/H2O2-stress induced premature senescence HFF-1 cell model assessed as cell migration by measuring cellular repair activity at 10 ug/mL upto 24 hrs by inverted microscopic based cell scratch assay; type: functional; settings: Homo sapiens, dose 10.0 µg/ml
HFF-1 [20] = assay: Induction of HFF-1 cell migration at 10 ug/mL measured for 2 to 8 hrs by transwell migration assay; type: functional, cell-based; settings: Homo sapiens, dose 10.0 µg/ml, time 2-8 hrs
HFF-1 [21] = assay: Protection against H2O2-induced SIPS HFF-1 cell model assessed as reduction in cell senescence at 5 to 25 ug/mL pretreated for 24 hrs followed by irritation with H2O2 for 2 hrs by SA-beta-Gal staining assay; type: functional, cell-based; settings: Homo sapiens, dose 5-25 µg/ml, time 26.0 hrs
HFF-1 [22] = assay: Inhibition of intracellular ROS level in UV-A-induced SIPS HFF-1 cell model assessed as reduction in ROS level pretreated with compound for 24 hrs followed by 10.8 J/cm^2 UV-A irritation incubated for 30 mins under dark condition by DCFH-DA staining based flow cytometry analysis; type: functional; settings: Homo sapiens, dose 5-50 µg/ml, time 24.5 hrs
HFF-1 [23] = assay: Restoration of H2O2-induced mitochondrial membrane potential damage in SIPS HFF-1 cell model at 5 to 25 ug/mL incubated for 20 mins by JC-1 staining based fluorescence microscopic analysis; type: functional; settings: Homo sapiens, dose 5-25 µg/ml
HFF-1 [24] = assay: Antioxidant activity against UV-A-induced SIPS HFF-1 cell model assessed as recovery of SOD level at 5 to 25 ug/mL pretreated with compound followed by 10.8 J/cm^2 UV-A irradiation; type: functional, cell-based; settings: Homo sapiens, dose 5-25 µg/ml
HFF-1 [25] = assay: Antioxidant activity against UV-A-induced SIPS HFF-1 cell model assessed as recovery of CAT level at 5 to 25 ug/mL pretreated with compound followed by 10.8 J/cm^2 UV-A irradiation; type: functional, cell-based; settings: Homo sapiens, dose 5-25 µg/ml
HFF-1 [26] = assay: Downregulation of MMP-1 expression in UV-A-induced SIPS HFF-1 cell model pretreated with compound for 24 hrs followed by 10.8 J/cm^2 UV-A irradiation by Western blot analysis; type: functional, cell-based; settings: Homo sapiens, dose 5-25 µg/ml
HFF-1 [27] = assay: Upregulation of COL-1 expression in UV-A-induced SIPS HFF-1 cell model pretreated with compound for 24 hrs followed by 10.8 J/cm^2 UV-A irradiation by Western blot analysis; type: functional, cell-based; settings: Homo sapiens, dose 5-25 µg/ml
[28] = molecular target: Nuclear factor NF-kappa-B complex (Homo sapiens) (UniProt Q00653+P19838+Q04206); assay: Inhibition of NF-kappaB activation in HFF-1 cells assessed as suppression of UV-A-induced IkappaBalpha degradation at 5 to 25 ug/mL pretreated with compound for 24 hrs followed by 10.8 J/cm^2 UV-A irradiation by Western blot analysis; type: cell-based; settings: dose 5-25 µg/ml
HFF-1 [29] = assay: Inhibition of H2O2-induced AKT activation in HFF-1 cells assessed as downregulation of mTOR phosphorylation at 5 to 25 ug/mL pretreated with compound for 24 hrs followed by H2O2 exposure for 2 hrs by Western blot analysis; type: cell-based; settings: Homo sapiens, dose 5-25 µg/ml, time 26.0 hrs
HFF-1 [30] = assay: Inhibition of H2O2-induced AKT phosphorylation in HFF-1 cells at 5 to 25 ug/mL pretreated with compound for 24 hrs followed by H2O2 exposure for 2 hrs by Western blot analysis; type: cell-based; settings: Homo sapiens, dose 5-25 µg/ml, time 26.0 hrs
[31] = molecular target: Ribosomal protein S6 kinase (Homo sapiens) (UniProt P51812+Q9UBS0+O75676+Q15349+O75582+P23443+Q9UK32+Q15418); assay: Inhibition of H2O2-induced S6K phosphorylation in HFF-1 cells at 5 to 25 ug/mL pretreated with compound for 24 hrs followed by H2O2 exposure for 2 hrs by Western blot analysis; type: cell-based; settings: dose 5-25 µg/ml, time 26.0 hrs
HFF-1 [32] = assay: Induction of autophagy in H2O2-induced SIPS HFF-1 cell model assessed as ratio of LC3BII/LC3BI levels at 5 to 25 ug/mL pretreated with compound for 24 hrs followed by H2O2 exposure for 2 hrs by Western blot analysis; type: functional, cell-based; settings: Homo sapiens, dose 5-25 µg/ml, time 26.0 hrs
HFF-1 [33] = assay: Induction of autophagy in H2O2-induced SIPS HFF-1 cell model assessed as p62 expression at 5 to 25 ug/mL pretreated with compound for 24 hrs followed by H2O2 exposure for 2 hrs by Western blot analysis; type: functional, cell-based; settings: Homo sapiens, dose 5-25 µg/ml, time 26.0 hrs
HFF-1 [34] = assay: Induction of autophagy in H2O2-induced SIPS HFF-1 cell model assessed as beclin-1 expression at 5 to 25 ug/mL pretreated with compound for 24 hrs followed by H2O2 exposure for 2 hrs by Western blot analysis; type: functional, cell-based; settings: Homo sapiens, dose 5-25 µg/ml, time 26.0 hrs
HFF-1 [35] = assay: Induction of autophagy in H2O2-induced SIPS HFF-1 cell model assessed as phosphorylated AMPK expression at 5 to 25 ug/mL pretreated with compound for 24 hrs followed by H2O2 exposure for 2 hrs by Western blot analysis; type: functional, cell-based; settings: Homo sapiens, dose 5-25 µg/ml, time 26.0 hrs
Mus musculus [36] = assay: In vivo anti-skin aging activity against UV-induced SIPS Kunming mouse model assessed as prevention of wrinkle and erythema formation at 100 ug/ml administered topically and measured for 10 weeks in presence of propylene glycol by macroscopic analysis; type: functional, organism-based; settings: dose 100.0 µg/ml, route top
Mus musculus [37] = assay: In vivo anti-skin aging activity against UV-induced SIPS Kunming mouse model assessed as upregulation of skin elasticity at 100 ug/ml administered topically and measured for 10 weeks in presence of propylene glycol; type: functional, organism-based; settings: dose 100.0 µg/ml, route top
Mus musculus [38] = assay: In vivo anti-skin aging activity against UV-induced SIPS Kunming mouse model assessed as increase in Skin-fold thickness of dorsal skin at 100 ug/ml administered topically and measured for 10 weeks in presence of propylene glycol by caliper method; type: functional, organism-based; settings: dose 100.0 µg/ml, route top
Mus musculus [39] = assay: In vivo anti-skin aging activity against UV-induced SIPS Kunming mouse model assessed as repair of wrinkled skin at 100 ug/ml administered topically for 5 weeks in presence of propylene glycol by macroscopic analysis; type: functional, organism-based; settings: dose 100.0 µg/ml, route top
Mus musculus [40] = assay: In vivo anti-skin aging activity against UV-induced SIPS Kunming mouse model assessed as restoration of skin elasticity at 100 ug/ml administered topically for 5 weeks in presence of propylene glycol; type: functional, organism-based; settings: dose 100.0 µg/ml, route top
Mus musculus [41] = assay: In vivo anti-skin aging activity against UV-induced SIPS Kunming mouse model assessed as restoration of dorsal skin thickness at 100 ug/ml administered topically for 5 weeks in presence of propylene glycol by caliper method; type: functional, organism-based; settings: dose 100.0 µg/ml, route top
Erythrocyte = assay: Hemolytic activity in human erythrocytes assessed as release of hemoglobin at 10 to 160 ug/ml; type: toxicity, cell-based; settings: dose 10-160 µg/ml

Nuclear factor NF-kappa-B complex (Homo sapiens), sequence (P19838 whole entry, looked up): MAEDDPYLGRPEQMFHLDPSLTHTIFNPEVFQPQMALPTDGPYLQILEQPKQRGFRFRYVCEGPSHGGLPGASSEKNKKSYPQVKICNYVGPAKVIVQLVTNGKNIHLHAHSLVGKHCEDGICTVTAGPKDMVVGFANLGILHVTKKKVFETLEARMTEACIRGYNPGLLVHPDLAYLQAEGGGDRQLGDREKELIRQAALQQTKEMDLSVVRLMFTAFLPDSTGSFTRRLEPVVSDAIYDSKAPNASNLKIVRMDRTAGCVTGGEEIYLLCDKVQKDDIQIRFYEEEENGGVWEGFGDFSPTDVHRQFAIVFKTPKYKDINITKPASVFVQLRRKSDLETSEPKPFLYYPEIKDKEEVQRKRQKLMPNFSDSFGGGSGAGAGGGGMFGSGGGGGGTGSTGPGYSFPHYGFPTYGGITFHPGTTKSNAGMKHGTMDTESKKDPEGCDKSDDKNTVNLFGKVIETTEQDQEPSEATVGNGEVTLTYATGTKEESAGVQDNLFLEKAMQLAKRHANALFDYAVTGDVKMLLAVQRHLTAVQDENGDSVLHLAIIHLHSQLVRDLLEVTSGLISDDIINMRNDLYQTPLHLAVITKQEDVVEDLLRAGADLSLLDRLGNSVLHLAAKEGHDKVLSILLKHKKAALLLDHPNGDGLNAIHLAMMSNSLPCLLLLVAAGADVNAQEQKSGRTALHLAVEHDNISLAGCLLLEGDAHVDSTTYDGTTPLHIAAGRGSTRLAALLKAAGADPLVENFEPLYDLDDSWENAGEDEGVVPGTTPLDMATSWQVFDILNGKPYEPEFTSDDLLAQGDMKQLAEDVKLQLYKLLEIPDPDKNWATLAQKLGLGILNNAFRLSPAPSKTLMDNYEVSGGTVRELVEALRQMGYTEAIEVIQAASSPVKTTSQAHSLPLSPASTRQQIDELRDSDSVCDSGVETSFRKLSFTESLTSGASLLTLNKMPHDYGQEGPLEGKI
Nuclear factor NF-kappa-B complex (Homo sapiens), sequence (Q00653 whole entry, looked up): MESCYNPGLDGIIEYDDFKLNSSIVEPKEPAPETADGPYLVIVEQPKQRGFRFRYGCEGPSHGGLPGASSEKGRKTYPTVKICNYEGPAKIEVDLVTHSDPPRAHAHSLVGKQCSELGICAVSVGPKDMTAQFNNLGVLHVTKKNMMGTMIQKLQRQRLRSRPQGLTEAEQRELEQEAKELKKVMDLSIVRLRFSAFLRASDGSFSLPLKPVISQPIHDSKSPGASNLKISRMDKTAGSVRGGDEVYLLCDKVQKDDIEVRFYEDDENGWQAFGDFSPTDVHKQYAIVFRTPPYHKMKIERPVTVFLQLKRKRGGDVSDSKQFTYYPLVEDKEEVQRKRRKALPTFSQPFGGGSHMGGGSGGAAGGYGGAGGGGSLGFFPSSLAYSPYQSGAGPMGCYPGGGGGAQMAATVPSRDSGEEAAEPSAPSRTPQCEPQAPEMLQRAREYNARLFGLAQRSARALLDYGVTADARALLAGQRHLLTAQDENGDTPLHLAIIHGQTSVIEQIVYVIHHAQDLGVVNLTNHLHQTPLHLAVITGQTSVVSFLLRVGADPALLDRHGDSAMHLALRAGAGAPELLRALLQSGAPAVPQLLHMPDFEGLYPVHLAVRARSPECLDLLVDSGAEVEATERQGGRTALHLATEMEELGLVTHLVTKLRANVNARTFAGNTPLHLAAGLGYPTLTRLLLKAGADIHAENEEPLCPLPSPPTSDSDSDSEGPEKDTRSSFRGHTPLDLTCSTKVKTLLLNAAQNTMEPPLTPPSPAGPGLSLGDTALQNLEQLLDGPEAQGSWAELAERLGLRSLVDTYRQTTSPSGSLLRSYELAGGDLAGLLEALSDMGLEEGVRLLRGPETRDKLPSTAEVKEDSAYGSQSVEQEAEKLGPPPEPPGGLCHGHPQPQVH
Nuclear factor NF-kappa-B complex (Homo sapiens), sequence (Q04206 whole entry, looked up): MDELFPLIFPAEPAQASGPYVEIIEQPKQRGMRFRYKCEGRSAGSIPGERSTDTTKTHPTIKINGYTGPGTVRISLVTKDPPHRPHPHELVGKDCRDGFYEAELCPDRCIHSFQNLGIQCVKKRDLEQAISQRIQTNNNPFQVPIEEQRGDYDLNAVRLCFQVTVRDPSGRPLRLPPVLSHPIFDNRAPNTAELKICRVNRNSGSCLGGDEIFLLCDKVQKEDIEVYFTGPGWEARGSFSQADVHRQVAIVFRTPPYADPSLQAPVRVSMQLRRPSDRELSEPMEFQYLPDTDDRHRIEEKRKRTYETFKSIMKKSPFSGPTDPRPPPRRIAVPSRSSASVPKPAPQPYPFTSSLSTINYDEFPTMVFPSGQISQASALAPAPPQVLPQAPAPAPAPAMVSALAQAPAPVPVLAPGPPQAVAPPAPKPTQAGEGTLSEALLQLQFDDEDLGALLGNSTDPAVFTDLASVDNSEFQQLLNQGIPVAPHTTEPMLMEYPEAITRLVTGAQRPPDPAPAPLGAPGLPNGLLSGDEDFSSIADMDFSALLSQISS

## CC(C)C[C@H](NC(=O)[C@@H](N)C(C)C)C(=O)N[C@@H](CCCCN)C(=O)N[C@@H](CCCCN)C(=O)N[C@@H](CS)C(=O)O (H-VLKKC-OH)
[1]
  Activity: Active
[2]
  Activity: 96.8%
[3]
  Activity: Active
HEK293
  Activity: Active
Mus musculus [4]
  Activity: Active

## CC(C)[C@H](N)C(=O)N[C@H](C(=O)N1CCC[C@H]1C(=O)N[C@H](C(=O)N[C@H](C(=O)N[C@H](C(=O)N[C@@H](CS)C(=O)N1CCC[C@H]1C(=O)N[C@@H](CCCCN)C(=O)O)C(C)C)C(C)C)[C@@H](C)O)C(C)C (H-VVPTVVCPK-OH)
HFF-1 [5]
  inhibition: Dose-Dependent Effect
HFF-1 [6]
  inhibition: Dose-Dependent Effect
HFF-1 [7]
  inhibition: Dose-Dependent Effect
[3]
  Activity: Active
HFF-1 [8]
  Activity: 5.14%
HEK293
  Activity: Active
Mus musculus [4]
  Activity: Active
[9]
  Activity: 21.4%
[10]
  Activity: 23.14%
[11]
  Activity: 26.03%
[12]
  Activity: 1.27%
[13]
  Activity: 3.01%
[14]
  Activity: 5.9%
[15]
  Activity: Active
[16]
  Activity: Active
[17]
  Activity: Active
[18]
  Stability: Stable
HFF-1 [19]
  Activity: Active
HFF-1 [20]
  Activity: Active
HFF-1 [21]
  Activity: Active
HFF-1 [22]
  inhibition: Dose-Dependent Effect
HFF-1 [23]
  Activity: Active
HFF-1 [24]
  Activity: Active
HFF-1 [25]
  Activity: Active
HFF-1 [26]
  Activity: Dose-Dependent Effect
HFF-1 [27]
  Activity: Dose-Dependent Effect
[28]
  Activity: Active
HFF-1 [29]
  inhibition: Active
HFF-1 [30]
  inhibition: Active
[31]
  inhibition: Active
HFF-1 [32]
  Activity: Active
HFF-1 [33]
  Activity: Active
HFF-1 [34]
  Activity: Active
HFF-1 [35]
  Activity: Active
Mus musculus [36]
  Activity: Active
Mus musculus [37]
  Activity: Active
Mus musculus [38]
  Activity: Active
Mus musculus [39]
  Activity: Active
Mus musculus [40]
  Activity: Active
Mus musculus [41]
  Activity: Active
Erythrocyte
  Activity: Non-Toxic

## CC(C)C[C@H](NC(=O)[C@@H](N)C(C)C)C(=O)N1CCC[C@H]1C(=O)N[C@@H](CCCCN)C(=O)N[C@@H](CS)C(=O)N[C@@H](Cc1c[nH]c2ccccc12)C(=O)O (H-VLPKCW-OH)
[3]
  Activity: Active

## CC(C)[C@H](N)C(=O)N[C@H](C(=O)N[C@@H](CS)C(=O)N1CCC[C@H]1C(=O)N[C@@H](CCCCN)C(=O)O)C(C)C (H-VVCPK-OH)
[1]
  Activity: Active
[3]
  Activity: Active
HEK293
  Activity: Active

Source: ChEMBL document CHEMBL5338806, “Rationally Designed Nonapeptides with Great Skin Photoprotective Effect through Producing Type 1 Collagen and Blocking the mTOR Pathway” (J Med Chem, 2023)
